Assay results as given in patent US8580321B2, “Method for reducing the effects of chemotherapy using flagellin related polypeptides” (priority 2003, dated 2013).

Columns and labels:
[1] = test system: small intestinal epithelium of irradiated mice; assay: Pathomorphological analysis of small intestine and skin after gamma irradiation; type: in vivo, mouse; conditions: for intestinal morphology 5 days after 14 Gy: pretreated mice, villi/crypt structure; for radiation-induced disappearance of sebaceous glands: skin, 5 days after 14 Gy
Description: Tissue samples of intestinal mucosa were taken 5 days after 14 Gy irradiation from mice pretreated with flagellin and control mice. Control animals were treated with 5.0 μg/mouse (0.2 mg/kg) bacterial RNA-polymerase. […] Tissue samples (small intestine and skin from the back) were also obtained from mice treated with the AA′ fragment. The results shown in FIG. 17 are areas of typical morphology observed over a set of at least 3 mice.
Flagellin (and CBLB502) may induce NF-κB activity via binding to TLR5. Accordingly, CBLB502-mediated radioprotection may be dependent on the presence and activity of TLR5. MOLF/Ei mice are a known natural model of TLR5 deficiency (Sebastiani G., et. al., Genomics. 2000 Mar. 15; 64(3):230-40). To verify that CBLB502-mediated radioprotection is indeed TLR5-dependent, we tested the protection of small intestine from radiation by CBLB502 in MOLF/Ei and NIH-Swiss mice (FIG. 35). Both strains of mice were given 0.2 mg/kg CBLB502 (AA′) or PBS 0.5 hr before 15 Gy of gamma-irradiation. The samples of small intestine were obtained 4 days after irradiation, stained by hematoxylin-eosin and subjected to pathomorphological analysis.

[2] = type: in vivo, mouse; conditions: for antibody level at 21 day: 21 days after injection
Description: We tested the ability of AA′ to protect mice that were exposed to it. A group of 20 NIH-Swiss mice were subcutaneously injected with 5 μg/mouse (0.2 mg/kg) of AA′. A second injection of a equal dose of AA′ was administered after 21 (10 mice) and 28 days (another 10 mice), with the time elapsed being sufficient for formation of antibodies. The second injection of AA′ was followed by 13 Gy of whole-body gamma irradiation (1 h post-injection).
We also performed an ELISA determination of antibody titers in order to quantify the effect that AA′ has on the immune status of the organism. 96-well plates were coated with flagellin or AA′, […], […], and incubated overnight at +4° C. Blood serum samples collected from mice were added to the wells in several dilutions and incubated overnight followed by 6 hrs reaction with secondary goat anti-mouse IgG HPO-conjugate antibodies. Measurements were performed using a spectrophotometer with a 414 nm filter.

[3] = test system: NF-κB; assay: EMSA of NF-κB translocation / DNA binding in A549 cells; conditions: for inducing NF-κB translocation: nuclear extracts of treated A549 lung cancer cells
[4] = test system: NF-κB; assay: NF-κB-regulated luciferase reporter assay in H116 human colon cancer cells; type: cell-based; conditions: for activation of NF-κB-regulated luciferase reporter: H116 cells, luciferase measured six hours after addition
Description: While translocation of NF-κB to the nucleus is a crucial step in induction of NF-κB-regulated inhibitors of apoptosis, it is not sufficient in itself. To directly test the ability of selected fragments to induce expression of NF-κB-regulated genes, we performed reporter assay experiments. Flagellin and the AA′, BB′, A′ and B′ fragments were used for treatment of H116 human colon cancer cells carrying luciferase gene under a NF-κB-responsive promoter. The reporter construct contained three NF-κB-binding sites from the E-selectin promoter combined with a Hsp70 minimal promoter that is routinely used for the detection of NF-κB status of cells. Luciferase activity was measured in cell lysates six hours after addition of flagellin or its truncated fragments into the medium. TNF was used as positive control.
In order to study the ability of the AA′ fragments to directly activate NF-κB-regulated transcription, we performed reporter assay experiments as described above for a wide range of concentrations of flagellin, original AA′ and AA′-derived fragments.

[5] = 0.2 mg/kg 0.5 hr before 15 Gy, samples 4 days after irradiation

AA′: flagellin fragment (1-177)-Linker-(402-505), SEQ ID NO: 8
intestinal morphology after 15 Gy, NIH-Swiss (TLR5 wild type) mice [1, 5]: preservation of intestinal morphology | intestinal morphology after 15 Gy, TLR5-deficient MOLF/Ei mice [1, 5]: no improving effect | intestinal morphology 5 days after 14 Gy [1]: near-normal intestinal morphology | radiation-induced disappearance of sebaceous glands [1]: prevented | immunogenicity of the original protein removed ([2]; AA′ versus flagellin): > 95% | reduction of immunogenicity compared to the original protein ([2]; AA′ versus flagellin): approximately 25 × | increase of antibody level at 28 days over 21 day ([2]; serum): about 10% | antibody level at 21 day ([2]; serum): ~0.8 mg/mL | NF-κB Stimulation ([3]; A549 cells, 1 μg/ml, 45 min, EMSA of whole cell extracts): Yes | level of NF-κB translocation, fragments versus flagellin ([3]; EMSA, A549 cells): comparable | inducing NF-κB translocation ([3]; EMSA): capable of inducing NF-κB translocation | activation of NF-κB-regulated luciferase reporter [4]: capable of NF-κB activation | level of NF-κB-regulated transcription relative to flagellin ([4]; reporter assay, over the studied range of concentrations): comparable to such of flagellin | NF-κB reporter activity relative to flagellin ([4]; very low concentration range): more active than flagellin

flagellin: Salmonella dublin FliC flagellin, 505 amino acids, SEQ ID NO: 1; recombinant full-length protein
morphology of small intestinal epithelium after 15 Gy ([1]; i.v. 0.25 mg/kg, 15 Gy, HE stained sections): close to normal morphology | intestinal morphology 5 days after 14 Gy [1]: near-normal intestinal morphology | radiation-induced disappearance of sebaceous glands [1]: prevented | antibody level at 21 day ([2]; serum): around 20 mg/ml | antibody level at 28 days ([2]; serum, 28 days after injection): around 20 mg/ml | inducing NF-κB translocation ([3]; EMSA): capable of inducing NF-κB translocation | activation of NF-κB-regulated luciferase reporter [4]: capable of NF-κB activation
